According to US10793557B2, “Sting agonist compounds” (Merck Sharp & Dohme Corp., priority 2018, dated 2020):

What was measured:
[1] = tested on: secretion of interferon-beta from THP1 cells; assay: IFN-β secretion in THP1 cell culture (5 h); type: cell-based; conditions: Homo sapiens, THP-1, 5 h, compound at 30 μM, 30 uM cGAMP = 100%, read-out: % Effect at 30 μM relative to 2′3′-cGAMP
Method: The ability of compounds to stimulate the secretion of interferon-beta from THP1 cells was measured using a human IFN-β AlphaLISA kit (Perkin Elmer, Cat. No. AL265F). The basic protocol is as follows:
A Labcyte Echo 550 acoustic dispenser was used to transfer 120 nL of compound dissolved in DMSO into the wells of an empty, sterile 384-well microplate, (Corning, Cat. No. 3712). THP1 cells (American Type Culture Collection, Cat. No. TIB202) previously frozen in Recovery Medium (Life Technologies, Cat. No. 12648-010) were thawed and immediately diluted 10-fold into 37° C. assay medium (RPMI 1640+L-Glutamine & phenol red, Life Technologies, Cat. No. 11875-085; 0.5% heat inactivated fetal bovine serum, Sigma Aldrich, Cat. No. F4135; 1 mM Sodium Pyruvate, Life Technologies, Cat. No. 11360-070; 1× non-essential amino acids; Life Technologies, Cat. No. 11140-050). The cell viability and count was ascertained using a Beckman Coulter V-Cell XR cell counter. The cells suspension was centrifuged at 200×g for 5 min at RT. Cells were resuspended to a density of 0.8×10^6/mL in 37° C. assay medium. Subsequent liquid transfers were performed using either a Matrix electronic multichannel pipette or an Agilent Bravo Automated Liquid Handling Platform.
The assay was started by dispensing 40 μL of the previously prepared cell suspension into the wells of the plate containing compounds. After 5 h incubation at 37° C., 5% CO2 in a humidified atmosphere, the plate of cells and compounds was centrifuged at 200×g for 5 min at RT. From each well, 5 μL of supernatant was transferred into corresponding wells of a white 384-well plate (Perkin Elmer, Cat. No. 6005620). To these supernatant-containing wells was added 10 μL of 5× Anti-Analyte Acceptor beads (50 μg/mL of AlphaLISA HiBlock Buffer) and incubated for 30 min at RT while shaking on an orbital plate shaker. To each well was added 10 μL of 5× Biotinylated Antibody Anti-analyte (5 nM in AlphaLISA HiBlock Buffer) and incubated on an orbital plate shaker for 60 min at RT or overnight at 4° C. To each well was added 25 μL of 2× SA-Donor beads (80 μg/mL in AlphaLISA HiBlock Buffer) and incubated for 30-45 min at RT in the dark while shaking on an orbital plate shaker. The plate was then read on a Perkin Elmer Envision (λex=680 nm, […]). The percent effect of the AlphaLISA signal at each compound concentration was calculated based on 30 uM cGAMP positive controls and 0.3% DMSO negative controls. The plot of percent effect versus the log of compound concentration was fit with a 4-parameter concentration response equation to calculate EC50 values. The test compounds were tested at concentrations 30000, 10000, 3333, 1111, 370.4, 123.4, 41.2, 13.7, 4.6, and 1.5 nM with 0.3% residual DMSO. The control compound, cGAMP was tested at concentrations 100000, 33333, 11111, 3704, 1235, 412, 137, 46, and 15 nM with 0.3% residual DMSO.
Compounds of the disclosure were evaluated for IFN-β secretion in THP1 cell culture as described above. The following table tabulates the biological data for these compounds as percent activation relative to 2′3′-cGAMP at the 30 µM concentration.

full-length HAQ STING = biological target: T1, full-length HAQ STING (Homo sapiens, UniProt Q86WV6, G230A/H232R/R293Q/R71H); assay: 3H-cGAMP filtration binding assay (HAQ STING); conditions: competition with tritiated cGAMP, HAQ STING membrane
T1 construct: AviTag (after GG linker) (C); HRV3C cleavage site (after GS linker) (C); HIS8 (C); made in house; host or cells: Trichoplusia ni (Hi-Five) insect cells infected with baculovirus (virus generated and amplified in Sf21 cells); used as a washed membrane preparation
Text: The ability of compounds to bind STING is quantified by the ability to compete with tritiated cGAMP ligand for human STING receptor membrane using a radioactive filter-binding assay. The binding assay employs STING receptor obtained from Hi-Five cell membranes overexpressing full-length HAQ STING prepared in-house and tritiated cGAMP ligand also purified in-house.
(§1) The ability of compounds to bind STING is quantified by their ability to compete with tritiated cGAMP ligand for human STING receptor membrane using a radioactive filter-binding assay. The binding assay employs STING receptor obtained from Trichoplusia ni cell membranes (T. ni; Expression Systems, cat #94-002F, www.expressionsystems.com) overexpressing full-length HAQ STING and tritiated cGAMP ligand.
The basic HAQ STING filtration assay protocol is as follows:
The compounds were serially titrated by the Hamilton STARPlus CORE in a 96-well plate (Greiner, #651201) using a 1:3 ten-point dose response format. After compound preparation, a 2.2 ug/ml working concentration of STING membrane (SEQ. ID. No. 1) was prepared by diluting concentrated membrane into assay buffer (1×PBS; Invitrogen # SH30028.02) and douncing 7× using a manual tissue homogenizer (Wheaton, #357546). 148 uL of prepared membrane was then manually added to each well of a 96-well deep-well polypropylene plate (Fisher Scientific, #12-566-121). Following membrane addition, 2 uL of either titrated test compound, DMSO control (Sigma #276855), or cold cGAMP control was added to the appropriate wells using a BIOMEK FX. Compound and membrane then preincubated for 60 min at RT to allow compound binding to equilibrate. Following equilibration, 8 nM of [^3H]c-GAMP ligand was prepared by diluting into assay buffer, and 50 uL of this working stock was then manually added to each well of the assay plate. Plates were then incubated at RT for 60 min, and the contents of each assay plate were then filtered through a 96-well GF/B filter plate (PerkinElmer, #6005250) using a TOMTEC MACH III Cell Harvester equipped with 20 mM HEPES buffer (Fisher Scientific, # BP299500). The filter plates were then dried at 55° C. for 30 min using a pressurized oven before 30 uL of ULTIMA GOLD F scintillate was added to each well. Tritium levels for each reaction well were then measured using a PerkinElmer TopCount plate reader.
(§2) After normalization to controls, the percent activity for each compound concentration was calculated by measuring the amount of remaining radioactivity. The plot of percent activity versus the log of compound concentration was fit with a 4-parameter dose response equation to calculate EC50 values.

full-length WT STING = biological target: T2, full-length WT STING (Homo sapiens, UniProt Q86WV6, H232R); assay: 3H-cGAMP filtration binding assay (WT STING); conditions: competition with tritiated cGAMP, WT STING membrane
T2 construct: AviTag (after gg linker) (C); HRV3C cleavage site (after gs linker) (C); HIS8 (C); made in house; host or cells: Trichoplusia ni (Hi-Five) insect cells infected with baculovirus (virus generated and amplified in Sf21 cells); used as a washed membrane preparation
Method: as §1, with “WT” for “HAQ”
The basic WT STING filtration assay protocol is as follows:
16 nM of [^3H] c-GAMP ligand was prepared by diluting into assay buffer, and 50 uL of this working stock was manually added to each well of the assay plate. After ligand addition, 2 uL of either titrated test compound, DMSO control (Sigma #276855), or cold cGAMP control was added to the appropriate wells using a BIOMEK FX. The serially titrated compound was prepared on a Hamilton STARPlus CORE in a 96-well plate (Greiner, #651201) using a 1:3 ten-point dose response format. Following compound addition, a 2.2 ug/ml working concentration of STING membrane (SEQ. ID. No. 3) was prepared by diluting concentrated membrane into assay buffer (1×PBS; Invitrogen # SH30028.02) and douncing 7× using a manual tissue homogenizer (Wheaton, #357546). 148 uL of this prepared membrane was then manually added to each well of a 96-well deep-well polypropylene plate (Fisher Scientific, #12-566-121). Compound, ligand, and membrane then incubated for 60 min at RT before the contents of each assay plate were filtered through a 96-well GF/B filter plate (PerkinElmer, #6005250) using a TOMTEC MACH III Cell Harvester equipped with 20 mM HEPES buffer (Fisher Scientific, # BP299500). The filter plates were then dried at 55° C. for 30 min using a pressurized VWR oven before 30 uL of ULTIMA GOLD F scintillate was added to each well. Tritium levels for each reaction well were then measured using a PerkinElmer TopCount plate reader.
as §2

T2 sequence (Q86WV6 with tags, fused parts or gaps H232R): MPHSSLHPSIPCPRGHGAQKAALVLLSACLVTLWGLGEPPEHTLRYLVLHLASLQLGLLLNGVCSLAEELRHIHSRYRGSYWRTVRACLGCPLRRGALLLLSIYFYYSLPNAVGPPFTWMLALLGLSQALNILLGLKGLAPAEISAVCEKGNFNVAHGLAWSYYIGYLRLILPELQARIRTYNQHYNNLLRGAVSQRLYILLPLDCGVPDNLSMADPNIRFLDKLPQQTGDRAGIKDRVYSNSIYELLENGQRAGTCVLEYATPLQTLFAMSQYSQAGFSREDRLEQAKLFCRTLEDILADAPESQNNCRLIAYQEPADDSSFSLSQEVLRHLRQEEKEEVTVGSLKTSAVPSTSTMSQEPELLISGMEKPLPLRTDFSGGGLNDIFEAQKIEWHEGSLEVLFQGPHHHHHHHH
T1 sequence (Q86WV6 with tags, fused parts or gaps R71H/G230A/H232R/R293Q): as the sequence (Q86WV6 with tags, fused parts or gaps H232R) above, with R71H, G230A, R293Q counted along it

SMILES | EC50 (full-length HAQ STING) | EC50 (full-length WT STING) | activation at 30 µM [1]
COc1cc2sc(C(=O)CCC(=O)O)cc2cc1OCCOc1ccc2sc(C(=O)CCC(=O)O)cc2c1 [Example 11, 4-(5-(2-((2-(3-carboxypropanoyl)-6-methoxybenzo [b]thiophen-5-yl)oxy)ethoxy)benzo[b]thiophen-2-yl)-4-oxobutanoic acid] | 1760 nM | 4560 nM | 7%
COc1cc2sc(C(=O)CCC(=O)O)cc2cc1OCCCc1nc2cc(C(=O)CCC(=O)O)sc2cc1OC [Example 13, 4-(5-(3-((2-(3-carboxypropanoyl)-6-methoxybenzo[b]thiophen-5-yl)oxy)propyl)-6-methoxythieno[3,2-b]pyridin-2-yl)-4-oxobutanoic acid] | 158 nM | 625 nM | 67%
COc1cc2sc(C(=O)C[C@H](C)C(=O)O)cc2cc1CCCOc1nc2cc(C(=O)CCC(=O)O)sc2cc1OC [Example 14, (S)-4-(5-(3-((2-(3-carboxypropanoyl)-6-methoxythieno[3,2-b]pyridin-5-yl)oxy)propyl)-6-methoxybenzo[b]thiophen-2-yl)-2-methyl-4-oxobutanoic acid] | 3 nM | 21 nM | 77%
COc1cc2sc(C(=O)C[C@H](C)C(=O)O)cc2cc1OCCCc1nc2cc(C(=O)CCC(=O)O)sc2cc1OC [Example 15, (S)-4-(5-(3-(2-(3-carboxypropanoyl)-6-methoxythieno [3,2-b]pyridin-5-yl)propoxy)-6-methoxybenzo[b]thiophen-2-yl)-2-methyl-4-oxobutanoic acid] | 107 nM | 615 nM | 114%
COc1cc2sc(C(=O)C[C@H](C)C(=O)O)cc2cc1CCCOc1nc2cc(C(=O)C[C@H](C)C(=O)O)sc2cc1OC [Example 16, (S)-4-(5-(3-(2-((S)-3-carboxybutanoyl)-6-methoxybenzo [b]thiophen-5-yl)propoxy)-6-methoxythieno[3,2-b]pyridin-2-yl)-2-methyl-4-oxobutanoic acid] | 22 nM | 51 nM | 70%
COc1cc2sc(C(=O)CCC(=O)O)cc2cc1OCCOc1nc2cc(C(=O)C[C@H](C)C(=O)O)sc2cc1OC [Example 17, (S)-4-(5-(2-((2-(3-carboxypropanoyl)-6-methoxybenzo [b]thiophen-5-yl)oxy)ethoxy)-6-methoxythieno[3,2-b]pyridin-2-yl)-2-methyl-4-oxobutanoic acid] | 52 nM | 299 nM | 38%

More lines, main results first:

EC50 (full-length HAQ STING) | EC50 (full-length WT STING) | SMILES | activation at 30 µM [1]
12 nM | 76 nM | COc1cc2sc(C(=O)CCC(=O)O)cc2nc1CCOc1nc2cc(C(=O)CCC(=O)O)sc2cc1OC [Example 8, 4-(5-(2-(2-(3-carboxypropanoyl)-6-methoxythieno[3,2-b]pyridin-5-yl)ethoxy)-6-methoxythieno[3,2-b]pyridin-2-yl)-4-oxobutanoic acid] | 99%
116 nM | 322 nM | COc1cc2sc(C(=O)CCC(=O)O)nc2cc1OCCc1nc2cc(C(=O)CCC(=O)O)sc2cc1OC [Example 9, 4-(5-(2-((2-(3-carboxypropanoyl)-6-methoxybenzo[d]thiazol-5-yl)oxy)ethyl)-6-methoxythieno[3,2-b]pyridin-2-yl)-4-oxobutanoic acid] | 48%
123 nM | 421 nM | COc1cc2sc(C(=O)CCC(=O)O)cc2cc1CCCOc1nc2cc(C(=O)CCC(=O)O)sc2cc1OC [Example 10, 4-(5-(3-(2-(3-carboxypropanoyl)-6-methoxybenzo [b]thiophen-5-yl)propoxy)-6-methoxythieno[3,2-b]pyridin-2-yl)-4-oxobutanoic acid] | 134%
2 nM | 8 nM | COc1cc2sc(C(=O)CCC(=O)O)cc2cc1OCCCOc1nc2cc(C(=O)C[C@H](C)C(=O)O)sc2cc1OC [Example 18, (S)-4-(5-(3-((2-(3-carboxypropanoyl)-6-methoxybenzo [b]thiophen-5-yl)oxy)propoxy)-6-methoxythieno [3,2-b]pyridin-2-yl)-2-methyl-4-oxobutanoic acid] | 62%
